# Laboratory results published in ChEMBL document CHEMBL1201862, “PubChem BioAssay data set” (2004).
# Active and inactive are the calls of the source.
# Experiments:
# [1] = biological target: Glycogen synthase kinase-3 alpha (Homo sapiens, UniProt P49840); assay: Inhibition of Human GSK-3 alpha Activity Measured in Biochemical System Using Microfluidics - 2063-06_Inhibitor_Dose_DryPowder_Activity. [Related pubchem assays (depositor defined):AID2709]
# [2] = biological target: Glycogen synthase kinase-3 beta (Homo sapiens, UniProt P49841); assay: Inhibition of Human GSK-3 beta Activity Measured in Biochemical System Using Microfluidics - 2063-05_Inhibitor_Dose_DryPowder_Activity. [Related pubchem assays (depositor defined):AID2709]
# Sequence of Glycogen synthase kinase-3 beta (P49841 whole entry): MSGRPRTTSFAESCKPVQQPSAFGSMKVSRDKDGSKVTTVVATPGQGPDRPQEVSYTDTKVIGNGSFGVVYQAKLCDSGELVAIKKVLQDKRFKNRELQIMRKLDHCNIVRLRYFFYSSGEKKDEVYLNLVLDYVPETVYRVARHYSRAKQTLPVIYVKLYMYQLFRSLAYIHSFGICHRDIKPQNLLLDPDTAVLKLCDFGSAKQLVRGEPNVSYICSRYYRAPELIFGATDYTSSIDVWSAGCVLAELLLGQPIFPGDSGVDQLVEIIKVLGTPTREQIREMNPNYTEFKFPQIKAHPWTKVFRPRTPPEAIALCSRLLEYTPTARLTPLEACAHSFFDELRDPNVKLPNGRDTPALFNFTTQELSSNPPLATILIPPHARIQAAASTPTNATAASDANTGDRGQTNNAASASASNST
# [3] = biological target: Trypsin (Sus scrofa, UniProt P00761); assay: trypsin protease activity blockade – biochemical, quenched peptide fluorescence, cherry-pick, selectivity assay for Rce1 protease inhibitor project, dose response (AID 488789)
# [4] = biological target: CAAX prenyl protease 1 (Saccharomyces cerevisiae S288c, UniProt P47154); assay: yeast CAAX protease Ste24 inhibition – biochemical, S. cerevisiae, plate reader, cherry-pick, dose response (AID 488815)
# [5] = biological target: CAAX prenyl protease 2 (Homo sapiens, UniProt Q9Y256); assay: inhibition of Ras-converting CAAX protease Rce1 – biochemical, yeast membranes, quenched-peptide fluorescence, cherry-pick, dose response (AID 588849)
# Sequence of CAAX prenyl protease 2 (Q9Y256 whole entry): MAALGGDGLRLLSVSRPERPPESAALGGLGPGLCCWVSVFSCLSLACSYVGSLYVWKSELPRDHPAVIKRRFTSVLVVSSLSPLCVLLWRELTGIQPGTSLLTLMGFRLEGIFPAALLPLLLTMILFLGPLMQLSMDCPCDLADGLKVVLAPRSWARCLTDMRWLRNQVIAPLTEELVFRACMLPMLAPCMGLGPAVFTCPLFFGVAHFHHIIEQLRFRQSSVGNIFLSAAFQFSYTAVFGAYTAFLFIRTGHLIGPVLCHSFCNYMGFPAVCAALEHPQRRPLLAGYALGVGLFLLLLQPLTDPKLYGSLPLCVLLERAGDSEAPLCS
# [6] = system: Escherichia coli; assay: microbe, parasite or virus in culture
# [7] = biological target: Dual specificity protein phosphatase 3 (Homo sapiens, UniProt P51452); assay: SAR VHR1 Fluorescent Assay for In Vitro dose response studies Set 3. [Related pubchem assays (depositor defined):AID1654, AID1661, AID1878]; type: functional
# [8] = biological target: Phospholipase D1 (Homo sapiens, UniProt Q13393); assay: cellular phospholipase D1 inhibition IC50 – cell-based, dose response (AID 602151); type: functional;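 also: cellular PLD1 assay in Calu-1 cells stimulated with PMA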
# Sequence of Phospholipase D1 (Q13393 whole entry): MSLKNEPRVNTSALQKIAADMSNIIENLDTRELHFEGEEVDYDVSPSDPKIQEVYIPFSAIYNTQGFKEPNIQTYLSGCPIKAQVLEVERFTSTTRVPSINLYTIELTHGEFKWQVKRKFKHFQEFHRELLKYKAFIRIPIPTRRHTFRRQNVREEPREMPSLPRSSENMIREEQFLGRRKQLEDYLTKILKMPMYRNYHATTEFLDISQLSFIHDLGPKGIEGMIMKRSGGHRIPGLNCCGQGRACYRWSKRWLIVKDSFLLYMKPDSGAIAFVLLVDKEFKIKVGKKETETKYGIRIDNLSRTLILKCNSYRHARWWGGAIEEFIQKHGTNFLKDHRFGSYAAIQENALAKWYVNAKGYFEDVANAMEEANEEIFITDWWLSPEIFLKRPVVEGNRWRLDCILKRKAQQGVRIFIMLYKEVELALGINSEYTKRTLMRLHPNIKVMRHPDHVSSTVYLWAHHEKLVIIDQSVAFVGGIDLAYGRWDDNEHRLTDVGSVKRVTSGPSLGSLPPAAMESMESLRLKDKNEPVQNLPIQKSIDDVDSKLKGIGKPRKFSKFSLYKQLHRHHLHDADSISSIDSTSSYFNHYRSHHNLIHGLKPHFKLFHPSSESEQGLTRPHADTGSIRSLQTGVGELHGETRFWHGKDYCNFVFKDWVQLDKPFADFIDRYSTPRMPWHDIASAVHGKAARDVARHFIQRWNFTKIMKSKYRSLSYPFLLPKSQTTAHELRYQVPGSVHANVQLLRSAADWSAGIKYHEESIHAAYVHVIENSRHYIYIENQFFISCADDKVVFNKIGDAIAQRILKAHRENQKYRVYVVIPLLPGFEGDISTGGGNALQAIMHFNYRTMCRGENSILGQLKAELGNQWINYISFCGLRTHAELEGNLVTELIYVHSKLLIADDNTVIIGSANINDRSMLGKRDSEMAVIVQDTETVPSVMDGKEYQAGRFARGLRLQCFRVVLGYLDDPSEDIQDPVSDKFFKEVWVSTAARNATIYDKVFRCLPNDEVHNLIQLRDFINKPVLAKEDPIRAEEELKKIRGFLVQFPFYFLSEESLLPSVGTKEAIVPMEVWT
# [9] = biological target: Phospholipase D2 (Homo sapiens, UniProt O14939); assay: cellular phospholipase D2 inhibition IC50 – cell-based, dose response (AID 602147); type: functional;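 also: cellular assay in HEK293 cells overexpressing GFP-tagged PLD2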
# Sequence of Phospholipase D2 (O14939 whole entry): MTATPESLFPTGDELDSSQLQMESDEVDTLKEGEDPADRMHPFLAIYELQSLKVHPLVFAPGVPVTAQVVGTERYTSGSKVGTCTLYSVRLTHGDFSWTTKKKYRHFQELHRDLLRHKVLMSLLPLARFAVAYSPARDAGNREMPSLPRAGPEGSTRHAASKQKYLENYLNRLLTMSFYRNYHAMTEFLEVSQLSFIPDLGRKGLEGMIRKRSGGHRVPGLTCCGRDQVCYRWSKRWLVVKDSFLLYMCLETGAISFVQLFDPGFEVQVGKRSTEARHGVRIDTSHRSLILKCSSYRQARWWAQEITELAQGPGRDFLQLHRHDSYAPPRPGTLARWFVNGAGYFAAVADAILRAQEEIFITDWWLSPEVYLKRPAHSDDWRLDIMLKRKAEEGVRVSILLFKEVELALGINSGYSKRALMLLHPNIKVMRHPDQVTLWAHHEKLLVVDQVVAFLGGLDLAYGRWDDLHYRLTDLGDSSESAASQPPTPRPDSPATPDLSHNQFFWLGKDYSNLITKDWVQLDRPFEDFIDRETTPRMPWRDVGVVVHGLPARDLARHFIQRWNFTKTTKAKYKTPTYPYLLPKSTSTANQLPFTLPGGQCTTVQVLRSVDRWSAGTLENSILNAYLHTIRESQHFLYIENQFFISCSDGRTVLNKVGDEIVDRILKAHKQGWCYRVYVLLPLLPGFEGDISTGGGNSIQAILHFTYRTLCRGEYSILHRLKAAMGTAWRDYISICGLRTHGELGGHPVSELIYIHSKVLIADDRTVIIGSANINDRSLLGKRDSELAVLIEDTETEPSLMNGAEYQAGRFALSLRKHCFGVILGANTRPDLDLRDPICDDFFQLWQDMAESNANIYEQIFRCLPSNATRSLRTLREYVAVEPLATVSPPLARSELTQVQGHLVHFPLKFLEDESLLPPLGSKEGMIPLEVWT
# [10] = system: BJ; assay: BJ-TERT fibroblast viability loss – cell-based, RAS-independent, luminescence, dose response (AID 1933); type: functional; conditions: Homo sapiens
# [11] = system: BJ; assay: cells; type: functional, cell-based; conditions: Homo sapiens
# [12] = biological target: Luciferin 4-monooxygenase (Photinus pyralis, UniProt P08659); assay: inhibition of purified Photinus pyralis luciferase – biochemical, luminescence, dose response (AID 1891)
# Sequence of Luciferin 4-monooxygenase (P08659 whole entry): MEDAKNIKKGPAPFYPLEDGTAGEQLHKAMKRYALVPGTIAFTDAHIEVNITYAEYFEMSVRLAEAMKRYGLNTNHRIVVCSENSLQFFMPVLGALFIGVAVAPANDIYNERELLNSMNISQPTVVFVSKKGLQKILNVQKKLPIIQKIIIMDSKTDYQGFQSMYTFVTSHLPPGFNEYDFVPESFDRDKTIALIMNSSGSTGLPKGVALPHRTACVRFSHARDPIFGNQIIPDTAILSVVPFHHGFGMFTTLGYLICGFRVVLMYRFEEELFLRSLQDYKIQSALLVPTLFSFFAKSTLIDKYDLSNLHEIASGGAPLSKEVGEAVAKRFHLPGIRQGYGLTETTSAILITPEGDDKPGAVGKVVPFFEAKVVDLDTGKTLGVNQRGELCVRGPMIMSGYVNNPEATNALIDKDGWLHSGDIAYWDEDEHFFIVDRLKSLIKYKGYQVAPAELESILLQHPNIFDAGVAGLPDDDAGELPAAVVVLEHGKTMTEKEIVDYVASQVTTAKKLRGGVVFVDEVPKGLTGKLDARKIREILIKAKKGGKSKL
# [13] = Luminescence Cell-Based Dose Confirmation HTS to Identify Inhibitors of Platelet Dense Granule Release. [Related pubchem assays: 1663 (Primary HTS), 1678 (Summary of Project)]; type: functional
# [14] = system: BJ; assay: BJ-TERT-LT-ST fibroblast viability loss – cell-based, RAS-independent, luminescence, dose response (AID 1935); type: functional; conditions: Homo sapiens;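 also: BJ fibroblasts immortalized with TERT plus LT and ST oncogenes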
# [15] = DRD fibroblast viability loss – cell-based, non-viral oncogenic, luminescence, dose response (AID 1934); type: functional; conditions: Homo sapiens
# [16] = system: BJ; assay: growth inhibition of engineered Ras-driven BJ cells – cell-based, alamar blue fluorescence, cherrypicked samples, dose response (AID 2631); type: functional; conditions: Homo sapiens;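 also: confirmatory dose-response assay in RAS-dependent BJ fibroblasts engineered with TERT, LT and ST, with cytotoxicity read by fluorescence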
# [17] = biological target: Delta-type opioid receptor (Homo sapiens, UniProt P41143); assay: Counterscreen for agonists of heterodimerization of the mu 1 (OPRM1) and delta 1 (OPRD1) opioid receptors: Luminescence-based cell-based high throughput dose response assay to identify agonists of OPRD1 homodimerization. [Related pubchem assays (depositor defined):AID504326, AID504355, AID504692, AID504904, AID504905]; type: functional
# Sequence of Delta-type opioid receptor (P41143 whole entry): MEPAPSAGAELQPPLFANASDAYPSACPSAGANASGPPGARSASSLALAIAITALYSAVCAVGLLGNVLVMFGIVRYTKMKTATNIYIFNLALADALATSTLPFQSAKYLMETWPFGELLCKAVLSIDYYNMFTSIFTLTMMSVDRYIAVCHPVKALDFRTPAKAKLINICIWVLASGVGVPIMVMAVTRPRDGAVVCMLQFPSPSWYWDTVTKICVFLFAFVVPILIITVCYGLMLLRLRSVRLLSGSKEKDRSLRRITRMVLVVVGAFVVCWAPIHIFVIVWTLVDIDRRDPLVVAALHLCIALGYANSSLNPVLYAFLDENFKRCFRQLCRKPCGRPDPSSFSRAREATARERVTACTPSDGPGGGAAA
# [18] = biological target: Mu-type opioid receptor (Homo sapiens, UniProt P35372); assay: Counterscreen for agonists of heterodimerization of the mu 1 (OPRM1) and delta 1 (OPRD1) opioid receptors: Luminescence-based cell-based high throughput dose response assay to identify agonists of OPRM1 homodimerization.; type: functional;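 also: U2OS cells expressing OPRM1 and beta-arrestin as split beta-galactosidase partners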
# Sequence of Mu-type opioid receptor (P35372 whole entry): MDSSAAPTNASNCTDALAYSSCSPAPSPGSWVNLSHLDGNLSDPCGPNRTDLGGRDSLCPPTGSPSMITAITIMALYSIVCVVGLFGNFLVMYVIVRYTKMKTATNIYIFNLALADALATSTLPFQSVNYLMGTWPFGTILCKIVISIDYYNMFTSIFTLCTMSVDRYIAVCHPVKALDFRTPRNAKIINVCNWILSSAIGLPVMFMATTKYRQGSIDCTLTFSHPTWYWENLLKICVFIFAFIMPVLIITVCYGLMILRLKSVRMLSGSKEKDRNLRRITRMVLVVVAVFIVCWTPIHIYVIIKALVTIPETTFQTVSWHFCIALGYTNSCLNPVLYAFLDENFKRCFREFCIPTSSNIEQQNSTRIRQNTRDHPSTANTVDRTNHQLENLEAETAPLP
# [19] = biological target: 5-hydroxytryptamine receptor 5A (Homo sapiens, UniProt P47898); assay: Counterscreen for agonists of OPRM1-OPRD1 heterodimerization: luminescence-based cell-based high throughput dose response assay to identify agonists of 5-hydroxytryptamine (serotonin) 5A receptor (HTR5A). [Related pubchem assays (depositor defined):AID504326, AID504355, AID504692, AID504904, AID504905]; type: functional
# Sequence of 5-hydroxytryptamine receptor 5A (P47898 whole entry): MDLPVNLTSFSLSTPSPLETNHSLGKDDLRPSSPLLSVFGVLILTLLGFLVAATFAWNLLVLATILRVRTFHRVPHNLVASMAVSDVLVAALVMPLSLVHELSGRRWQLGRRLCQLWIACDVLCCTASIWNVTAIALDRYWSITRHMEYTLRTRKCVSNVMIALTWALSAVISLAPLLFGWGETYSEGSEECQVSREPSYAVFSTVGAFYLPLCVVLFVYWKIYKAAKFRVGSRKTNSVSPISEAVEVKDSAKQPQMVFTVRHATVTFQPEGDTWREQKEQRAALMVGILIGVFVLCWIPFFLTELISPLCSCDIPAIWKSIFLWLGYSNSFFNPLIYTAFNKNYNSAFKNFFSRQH
# Sequence of Glycogen synthase kinase-3 alpha (P49840 whole entry): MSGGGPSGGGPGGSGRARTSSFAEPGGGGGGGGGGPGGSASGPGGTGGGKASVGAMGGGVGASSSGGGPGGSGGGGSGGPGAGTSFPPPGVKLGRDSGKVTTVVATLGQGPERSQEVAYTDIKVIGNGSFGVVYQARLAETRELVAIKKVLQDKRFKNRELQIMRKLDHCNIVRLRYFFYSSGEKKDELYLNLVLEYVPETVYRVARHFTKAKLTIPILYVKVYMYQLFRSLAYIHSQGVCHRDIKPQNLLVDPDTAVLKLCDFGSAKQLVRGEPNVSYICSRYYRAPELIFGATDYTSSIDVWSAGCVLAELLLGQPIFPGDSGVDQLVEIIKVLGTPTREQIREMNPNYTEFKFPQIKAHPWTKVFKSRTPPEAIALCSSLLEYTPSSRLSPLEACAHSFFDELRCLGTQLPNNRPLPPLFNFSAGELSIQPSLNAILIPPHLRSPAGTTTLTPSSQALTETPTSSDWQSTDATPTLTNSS
smiles,measurement,setting,value
CCOC(=O)c1nnn(-c2nonc2N)c1CSc1ccc(C)cc1,AC50,[1],8.32 µM (active)
same,AC50,[2],1.19 µM (active)
CC(Oc1ccc2c3c(c(=O)oc2c1)CCCC3)C(=O)NC1CC(C)(C)NC(C)(C)C1 (centres undefined),AC50,[3],9.81 µM (active)
same,AC50,[4],2.88 µM (active)
same,AC50,[5],16.2 µM (active)
COc1ccc(S(=O)(=O)N2CCN(CC(=O)Nc3c(C)n[nH]c3C)CC2)cc1OC,AC50,[6],62.1 µM (active)
COc1cccc2sc(NC(=O)c3ccccc3)nc12,IC50,[7],> 66 µM (inactive)
C[C@H](CN1CCC2(CC1)C(=O)NCN2c1ccccc1)NC(=O)c1ccc(F)cc1,IC50,[8],413 nM (active)
same,IC50,[9],200 nM (active)
Cc1occc1C(=O)N/N=C/c1ccc(-c2ccccc2)cc1,EC50,[10],4.43 µM (active)
same,EC50,[11],3.14 µM (active)
same,EC50,[12],151 nM (active)
same,EC50,[13],897 nM (active)
same,EC50,[14],10.3 µM (active)
same,EC50,[15],3.41 µM (active)
same,EC50,[16],> 133 µM (inactive)
same,EC50,[17],> 92.4 µM (inactive)
same,EC50,[18],> 92.4 µM (inactive)
same,EC50,[19],> 92.4 µM (inactive)
